Test results reported in patent publication US11209437B2, “Fluorescent probe and preparation method and use thereof” (Fluorescence Diagnosis (shanghai) Biotech Company Ltd., priority 2016, dated 2021).

Key:
[1] = Fluorescence of free probe prior to binding to a protein tag; format: physicochemical
Protocol: (§1) Probes were mixed with corresponding protein tags to obtain mixed samples, in which the final probe concentration was 5 μM, and the final protein tag concentration was 10 μM. The mixed samples were incubated 37° C. for 1 hr, fluorescence spectrophotometer was used to detect the change in fluorescence intensity, and the results are shown in Table 1.
(§2) From the quantum yield of probe bound to protein tag, after reacting with the protein tags, the probes of the Examples could be detected to have significant signal enhancement in corresponding excitation transmission channels, the fluorescence activation multiple reached several hundreds to a thousand or more, and the brightness was high, which illustrates that after the probes of the Examples are bound to the protein tags, fluorescence of the probes can be activated, and the probes have good fluorescent molecular switching properties. In contrast, though the fluorescence of the reference probes could also be activated, the quantum yield of activated fluorescence was very low, and the brightness was very poor. In particular, in view of comparison results between probe 98 and reference probe 99, probe 101 and reference probe 102, probe 103 and reference probe 104, probe 105 and reference probe 106, probe 107 and reference probe 108, probe 109 and reference probe 110, probe 111 and reference probe 112, probe 114 and reference probe 115, probe 117 and reference probe 118, probe 120 and reference probe 121 in Table 1, for the same fluorescent dye, when the ligand is connected to the electron donor part of the fluorescent dye, the fluorescence activation brightness of the probe is much higher than the reference probe in which ligand is connected to the electron acceptor part of the fluorescent dye.

[2] = Viscosity responsiveness: fluorescence emission spectra of probes in glycerol and methanol; format: physicochemical; settings: for Emission wavelength: excited at maximum excitation wavelength of each probe; for Fluorescence ratio in glycerol to methanol: probe 1×10^−5 M
Protocol: Probes 1 to 98, 101, 103, 105, 107, 109, 111, 114, 117, and 120, and the reference probes 99, 100, 102, 104, 106, 108, 110, 112, 113, 115, 116, 118, 119, 121, BG-CCVJ and BG-Gly-CCVJ were dissolved in dimethyl sulfoxide, respectively, to prepare mother liquors having a concentration of 1×10^−2 M, to each of which glycerol and methanol were added and uniformly mixed, to prepare solutions finally having a concentration of 1×10^−5 M. Depending on the probes, fluorescence emission spectra of the probes were detected successively with the maximum excitation wavelength of each probe under the same conditions, and the results were shown in Table 1.
That is, these probes are sensitive to viscosity changes and have viscosity responsiveness.

SNAP protein tags = target: T1, SNAP protein tags (Homo sapiens, UniProt P16455, A127T/A154D/C150Q/C62A/E30R/G131K/G132T/G153L/K125A/K32I/L33F/M134L/N157G/Q115S/Q116H/R128A/R135S/S151G/S152D/S159E); experiment: Fluorescence activation of probe after incubation with corresponding protein tag (SNAP); format: biochemical; settings: probe 5 μM, protein tag 10 μM, 37° C., 1 hr
T1 sequence (P16455 1-182 E30R/K32I/L33F/C62A/Q115S/Q116H/K125A/A127T/R128A/G131K/G132T/M134L/R135S/C150Q/S151G/S152D/G153L/A154D/N157G/S159E): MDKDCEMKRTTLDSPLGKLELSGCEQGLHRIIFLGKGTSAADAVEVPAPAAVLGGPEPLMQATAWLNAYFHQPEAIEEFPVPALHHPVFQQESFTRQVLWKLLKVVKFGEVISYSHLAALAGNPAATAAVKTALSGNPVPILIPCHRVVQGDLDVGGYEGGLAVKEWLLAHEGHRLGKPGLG
Protocol: as §1, §2

SMILES | Quantum yield of free probe [1] | Emission wavelength [2] [nm] | Fluorescence ratio in glycerol to methanol [2] | Fluorescence activation multiple (SNAP protein tags) | Quantum yield of probe bound to protein tag (SNAP protein tags)
CN(CCO)c1cc2c(s1)-c1sc(/C=C(/C#N)C(=O)NCc3ccc(COc4nc(N)nc5[nH]cnc45)cc3)cc1C2(C)C [Reference Probe 99, reference compound] | <0.001 | 649 | 129 | 53 | 0.01
CN(C)c1ccc(/C=C(\C#N)C(=O)NCc2ccc(COc3nc(N)nc4[nH]cnc34)cc2)cc1 [Reference Probe 100, reference compound] | <0.001 | 480 | 213 | 43 | 0.011
CN(CCO)c1ccc(/C=C(\C#N)C(=O)NCc2ccc(COc3nc(N)nc4[nH]cnc34)cc2)cc1 [Reference Probe 102, reference compound] | <0.001 | 480 | 212 | 31 | 0.02
N#C/C(=C\c1ccc2c(c1)SCCN2CCO)C(=O)NCc1ccc(COc2nc(N)nc3[nH]cnc23)cc1 [Reference Probe 104, reference compound] | <0.001 | 515 | 351 | 23 | 0.02
CC1=CC(C)(C)N(CCO)c2ccc(/C=C(\C#N)C(=O)NCc3ccc(COc4nc(N)nc5[nH]cnc45)cc3)cc21 [Reference Probe 106, reference compound] | <0.001 | 555 | 215 | 62 | 0.01
CN(CCO)c1cc2sc(/C=C(\C#N)C(=O)NCc3ccc(COc4nc(N)nc5[nH]cnc45)cc3)cc2s1 [Reference Probe 108, reference compound] | <0.001 | 555 | 329 | 30 | 0.02
CN(CCO)c1ccc(C#C/C=C(\C#N)C(=O)NCc2ccc(COc3nc(N)nc4[nH]cnc34)cc2)cc1 [Reference Probe 110, reference compound] | <0.001 | 567 | 218 | 23 | 0.01

Continued, values first:

Quantum yield of free probe [1] | Emission wavelength [2] [nm] | Fluorescence ratio in glycerol to methanol [2] | Fluorescence activation multiple (SNAP protein tags) | Quantum yield of probe bound to protein tag (SNAP protein tags) | SMILES
<0.001 | 570 | 211 | 41 | 0.01 | CN(CCO)c1ccc2cc(/C=C(\C#N)C(=O)NCc3ccc(COc4nc(N)nc5[nH]cnc45)cc3)sc2c1 [Reference Probe 112, reference compound]
<0.001 | 625 | 129 | 36 | 0.01 | CN(C)c1ccc2nc(/C=C(\C#N)C(=O)NCc3ccc(COc4nc(N)nc5[nH]cnc45)cc3)sc2c1 [Reference Probe 113, reference compound]
<0.001 | 625 | 113 | 38 | 0.01 | CN(CCO)c1ccc2nc(/C=C(\C#N)C(=O)NCc3ccc(COc4nc(N)nc5[nH]cnc45)cc3)sc2c1 [Reference Probe 115, reference compound]
<0.001 | 620 | 125 | 29 | 0.01 | CN(C)c1ccc(-c2ccc(/C=C(\C#N)C(=O)NCc3ccc(COc4nc(N)nc5[nH]cnc45)cc3)s2)cc1 [Reference Probe 116, reference compound]
